Legend:
[1] = system: trypsin; set-up: method as in COVID Moonshot; settings: Docking_validation.csv; ref COVID Moonshot; read-out: trypsin_IC50; cited from earlier work
[2] = system: SARS-CoV-2 main protease; type: biochemical; settings: Docking validation set, class assigned from COVID Moonshot IC50
[3] = molecular target: recombinant SARS-CoV-2 main protease Mpro (Severe acute respiratory syndrome coronavirus 2, UniProt P0DTC1); assay: FRET-based Mpro proteolytic activity assay; type: biochemical; settings: for IC50: Mpro FRET (1 μM DTT)
[4] = system: SARS-CoV-2 main protease; settings: cited from earlier work; for IC50: Docking_validation.csv, ref COVID Moonshot, read-out: f_avg_IC50; for f_avg_pIC50: Covid_Moonshot_activity_data.csv, ref COVID Moonshot (covid.postera.ai)
[5] = system: SARS, SARS-CoV-2 and MERS Mpro; settings: Origin COVID_Moonshot; ref COVID Moonshot; cited from earlier work
[6] = system: Mpro; settings: ML dataset, Origin COVID_Moonshot; ref COVID Moonshot; cited from earlier work
[7] = molecular target: human Cathepsin L (Homo sapiens, UniProt P07711); assay: Fluorimetric human liver Cathepsin L (hCatL) activity assay; type: biochemical; settings: reference inhibitor
Chain of human Cathepsin L (P07711 114-333 limits assumed): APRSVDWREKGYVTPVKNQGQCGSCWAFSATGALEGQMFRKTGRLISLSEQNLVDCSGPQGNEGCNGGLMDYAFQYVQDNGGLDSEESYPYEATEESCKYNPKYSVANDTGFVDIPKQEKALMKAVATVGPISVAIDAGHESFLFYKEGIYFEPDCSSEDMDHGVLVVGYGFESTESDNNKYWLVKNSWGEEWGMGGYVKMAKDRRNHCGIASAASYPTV

[8] = system: host–cell proteases, such as cathepsin L; set-up: method as in PMID 34726479, PMID 35352927, PMID 33158912; settings: cited from earlier work

Compound | label (active / inactive) [2] | IC50 [4] [µM] | also measured
O=C(Oc1cncc(Cl)c1)c1cccc2[nH]ccc12 [ALP-POS-c59291d4-5, O=C(Oc1cncc(Cl)c1)c1cccc2[nH]ccc12] |  |  | IC50 [1]: 99 µM
Cc1[nH]c2ncnc(NC(=O)c3cc4ccccc4c(=O)o3)c2c1C [COM-UCB-8c7d23dc-12, Cc1[nH]c2ncnc(NC(=O)c3cc4ccccc4c(=O)o3)c2c1C] | inactive |  | 
O=C(Nc1c[nH]nc1-c1ccccn1)c1cccc2nccn12 [COM-UCB-8c7d23dc-15, O=C(Nc1c[nH]nc1-c1ccccn1)c1cccc2nccn12] | inactive |  | 
Cc1cncc(CC(=O)N2CCC[C@H]2c2cccc(Cl)c2)c1 [Compound 7, (S)-1-(2-(3-chlorophenyl)pyrrolidin-1-yl)-2-(5-methylpyridin-3-yl)ethan-1-one] |  |  | IC50 [3]: 5.6 µM
Cc1cncc(CC(=O)N2CCc3cc(Cl)c(Cl)cc3C2)c1 [Compound 12, 1-(6,7-dichloro-3,4-dihydroisoquinolin-2(1H)-yl)-2-(5-methylpyridin-3-yl)ethan-1-one] |  |  | IC50 [3]: 2.3 µM; fold improvement of Mpro FRET IC50 after first round of optimization ([3]; relative to the parent hit (compound 8 or 10)): 27 fold
CCn1cncc1NC(=O)C1c2cc(Cl)cc(Cl)c2OCC1C (centres unmarked) [Compound 21, 6,8-dichloro-N-(1-ethyl-1H-imidazol-5-yl)-3-methylchromane-4-carboxamide] |  |  | IC50 [3]: 66.9 µM
Cc1ccncc1NC(=O)N(C)c1cccc(Cl)c1 [EDG-MED-0da5ad92-3, Cc1ccncc1NC(=O)N(C)c1cccc(Cl)c1] | inactive |  | 
O=C(Nc1nncn1C1CC1)C1CCOc2ccccc21 (centres unmarked) [EDJ-MED-0e996074-1, O=C(Nc1nncn1C1CC1)C1CCOc2ccccc21] | inactive |  | 
O=C(Cc1cccc(Cl)c1)Nc1cnnc2ccccc12 [EDJ-MED-50fe53e8-2, O=C(Cc1cccc(Cl)c1)Nc1cnnc2ccccc12] | inactive |  | 
O=C(Nc1nncn1C1CC1)C1CCOc2ccc(Cl)cc21 (centres unmarked) [JAG-UCB-a3ef7265-20, O=C(Nc1nncn1C1CC1)C1CCOc2ccc(Cl)cc21] | inactive |  | 
Cc1ccc(-n2ncc3c(=O)n(CC(N)=O)cnc32)cc1C [JAG-UCB-ef2c0e8e-4, Cc1ccc(-n2ncc3c(=O)n(CC(N)=O)cnc32)cc1C] | inactive |  | 
O=C(Cc1cccc(Cl)c1)Nn1cnc2ccccc2c1=O [JAN-GHE-5a013bed-3, O=C(Cc1cccc(Cl)c1)Nn1cnc2ccccc2c1=O] | inactive | 8.65 | IC50 [1]: 99 µM
CC(=O)NCCc1c[nH]c2ccc(O)cc12 [JOH-MSK-a63bdd1d-4, CC(=O)NCCc1c[nH]c2ccc(O)cc12] | inactive |  | 
O=C(Nc1cccnc1)N(CCN1CCOCC1)c1cccc(Cl)c1 [JOR-UNI-2fc98d0b-6, O=C(Nc1cccnc1)N(CCN1CCOCC1)c1cccc(Cl)c1] | inactive |  | 
O=S(=O)(Cc1ccccc1F)c1oc(-c2ccc(F)cc2)nc1S(=O)(=O)c1ccccc1 [LON-WEI-4d77710c-2, O=S(=O)(Cc1ccccc1F)c1oc(-c2ccc(F)cc2)nc1S(=O)(=O)c1ccccc1] |  | 0.397 | IC50 [5]: 0.397 µM; IC50 [6]: 0.248 µM
CCOC(=O)c1c(C)n(S(C)(=O)=O)c2ccc(N(C(=O)c3ccco3)S(C)(=O)=O)cc12 [LON-WEI-4d77710c-8, CCOC(=O)c1c(C)n(S(C)(=O)=O)c2ccc(N(C(=O)c3ccco3)S(C)(=O)=O)cc12] |  | 0.282 | IC50 [5]: 0.282 µM; IC50 [6]: 0.214 µM
O=C(Nc1cccc(C(F)(F)F)c1)Nc1ccccc1Sc1ncc([N+](=O)[O-])s1 [LON-WEI-4d77710c-69, O=C(Nc1cccc(C(F)(F)F)c1)Nc1ccccc1Sc1ncc([N+](=O)[O-])s1] |  | 6.26 | 

Compound | label (active / inactive) [2] | IC50 [4] [µM] | also measured
N#Cc1cnn(C(=O)c2cccs2)c1C1CC1 [LON-WEI-4d77710c-70, N#Cc1cnn(C(=O)c2cccs2)c1C1CC1] |  | 3.24 | IC50 [5]: 3.24 µM; IC50 [6]: 1.8 µM
c1ccc(-c2cc(Sc3nnc(-c4cccs4)o3)n3ncnc3n2)cc1 [LON-WEI-4d77710c-76, c1ccc(-c2cc(Sc3nnc(-c4cccs4)o3)n3ncnc3n2)cc1] |  | 0.221 | IC50 [5]: 0.221 µM; IC50 [6]: 0.187 µM
O=C(Nc1ccccc1)[C@@H](c1ccccc1)N1Cc2ccccc2C1=O [LON-WEI-b2874fec-15, O=C(Nc1ccccc1)[C@@H](c1ccccc1)N1Cc2ccccc2C1=O] | inactive |  | 
CC(=O)N[C@@H](CC(C)C)C(=O)N[C@@H](CC(C)C)C(=O)N[C@H](C=O)CCCNC(=N)N [Leupeptin] |  |  | IC50 [7]: ~0.002 µM
CC1C(O)CCCN1Cc1ccccc1 (centres unmarked) [MAK-UNK-6435e6c2-9, CC1C(O)CCCN1Cc1ccccc1] | inactive |  | 
O=C(Nc1cncc2ccccc12)C1=CCCc2ccc(Cl)cc21 [MAT-POS-0c8fa4a7-1, O=C(Nc1cncc2ccccc12)C1=CCCc2ccc(Cl)cc21] |  | 0.233 | IC50 [5]: 0.233 µM; IC50 [6]: 0.157 µM
COc1ccc(Cl)cc1OCCNC(=O)c1cc(=O)[nH]c2cccc(OC)c12 [MAT-POS-3b536971-1, COc1ccc(Cl)cc1OCCNC(=O)c1cc(=O)[nH]c2cccc(OC)c12] |  | 0.874 | IC50 [5]: 0.874 µM
O=C(c1cc(=O)[nH]c2ccc(F)cc12)N1CCN(S(=O)(=O)c2cccc(Cl)c2)CC1 [MAT-POS-590ac91e-69, O=C(c1cc(=O)[nH]c2ccc(F)cc12)N1CCN(S(=O)(=O)c2cccc(Cl)c2)CC1] | inactive |  | 
O=C(NCC1(C(=O)Nc2cncc3ccccc23)CCOc2ccc(Cl)cc21)C1COCCN1CC(F)(F)F (centres unmarked) [MAT-POS-932d1078-1, O=C(NCC1(C(=O)Nc2cncc3ccccc23)CCOc2ccc(Cl)cc21)C1COCCN1CC(F)(F)F] |  |  | f_avg_pIC50 [4]: 4.666
COC[C@]1(C(=O)Nc2cncc3ccccc23)CCOc2cc(Cl)c(Cl)cc21 [MAT-POS-932d1078-4, COC[C@]1(C(=O)Nc2cncc3ccccc23)CCOc2cc(Cl)c(Cl)cc21] |  |  | f_avg_pIC50 [4]: 5.492
COC[C@@]1(C(=O)Nc2cncc3ccccc23)CCOc2cc(Cl)c(Cl)cc21 [MAT-POS-932d1078-5, COC[C@@]1(C(=O)Nc2cncc3ccccc23)CCOc2cc(Cl)c(Cl)cc21] |  |  | f_avg_pIC50 [4]: 4.772
O=C1CC(Oc2cc(Cl)cc(CC(=O)Nn3cnc4ccccc43)c2)N1 (centres unmarked) [MAT-POS-c478e61b-1, O=C1CC(Oc2cc(Cl)cc(CC(=O)Nn3cnc4ccccc43)c2)N1] | inactive | 82.1 | IC50 [6]: 90.6 µM
O=C(Nc1cncc2ccccc12)C1COc2ccc(Cl)cc21 (centres unmarked) [MAT-POS-f7918075-2, O=C(Nc1cncc2ccccc12)C1COc2ccc(Cl)cc21] |  | 0.764 | IC50 [5]: 2.6 µM
Cc1ccncc1NC(=O)Cc1cncc(Cl)c1 [TRY-UNI-2eddb1ff-2, Cc1ccncc1NC(=O)Cc1cncc(Cl)c1] | inactive | 46.4 | IC50 [1]: 99 µM
NS(=O)(=O)c1ccc(N2CCC([C@@H]3CCCO3)CC2)cc1 [WAR-XCH-b72a1bbc-18, NS(=O)(=O)c1ccc(N2CCC([C@@H]3CCCO3)CC2)cc1] | inactive |  | 
Cn1cnc(Cn2c(=O)[nH]/c(=N\c3cc4cn(C)nc4cc3Cl)n(Cc3cc(F)c(F)cc3F)c2=O)n1 [ensitrelvir] |  |  | inhibitory activity against host–cell proteases, such as cathepsin L [8]: no inhibitory activity
Nirmatrelvir–ritonavir |  |  | inhibitory activity against host–cell proteases, such as cathepsin L [8]: no inhibitory activity

— article PMC11187573, “Identification of SARS-CoV-2 Mpro inhibitors through deep reinforcement learning for de novo drug design and computational chemistry approaches” (RSC Medicinal Chemistry, 2024)
